Results reported in a melting point compilation (Tetko et al.; mined from patent text by program, amines drawn as free bases though some values may be those of a salt).

Structure (SMILES)	melting point [°C]
O=C(CCN1CCCCC1)Nc1cccc(NC(=O)Nc2ccc(N(CCCl)CCCl)cc2)c1	108 to 110
Nc1nc(C(F)(F)F)cc(C(F)(F)F)n1	94.5 to 96
CCOP(=O)(OCC)c1c(C)c2c(c(C)c1-c1c(OC)ccc3ccccc13)COC2	77.3 to 78.9
Cc1ccc(-c2ccccc2NC(=O)NN)cc1	148 to 151
COc1cccc2c1Sc1ccc(Cl)cc1C2	95 to 96
Cc1cc(C(=O)O)nc(-c2ccc([N+](=O)[O-])cc2)c1	216 to 219
CC1(C)C2CC3CCC(=O)OC3C1C2 (stereo not given)	57 to 60
Cc1cncn1CC#CCN1CCCC1=O	194 to 197
COc1cc(O)c2c(=O)cc(C(=O)Nc3ccc(CC4SC(=O)NC4=O)cc3)oc2c1 (stereo not given)	255 to 256
Cc1ccc(C=CC(=O)CCCCCl)cc1	79 to 82
O=C(Nc1ccc(S(=O)(=O)N2CCC(CNC[C@H](O)COc3ccc(O)cc3)CC2)cc1)Nc1ccccn1	189
Cn1c2ccccc2c(=O)c2cscc21	188 to 190
Cc1c(C=CC#N)c2c(c(C)c1OCc1ccccc1)CCC(C)(C)O2	108
Cc1cc(C)n(C(=O)C(NS(=O)(=O)c2ccc(Cl)cc2)c2ccccc2)n1 (stereo not given)	160
Oc1ccc(CCN(Cc2ccccc2)CC(O)COc2ccccc2)cc1 (stereo not given)	103 to 105
Cc1cc(=O)oc2nc(N(C)C)ccc12	157 to 160
C=CCOC(=O)c1c(C)nc2c(c1N)c1ccccc1n2C	94
CCc1nc2c(-c3ccc(OC(F)(F)F)cc3Cl)ncnc2n1C(C1CC1)C1CC1	119 to 120
CC(=O)Oc1cccc(C(Br)C(Br)c2ccccc2)c1 (stereo not given)	156 to 157
COC(=O)c1cc(O)nn1-c1ccccc1	227 to 228

Structure (SMILES)	melting point [°C]
Cn1cc2c(=O)[nH]c(=O)[nH]c2n1	200
COc1cccc(C(=O)N(CC=O)c2ccccc2OC)c1	77 to 81
CCCOc1ccccc1-c1nc2cc3ncn(CC)c3cc2c(=O)[nH]1	212 to 214
CS(=O)(=O)c1ccc(-c2cocc2-c2ccc(F)cc2)cc1	160 to 161
O=CN(O)C(CCc1ccc(C(=O)O)cc1)CS(=O)(=O)c1ccc(Oc2ccc(OC(F)(F)F)cc2)cc1 (stereo not given)	189 to 191
CCc1nc2c(C)cc(C)nc2n1Cc1ccc(C(c2ccccc2)C(C)(C)C(=O)O)cc1 (stereo not given)	103 to 106
COc1cc(OC)nc(NC(=O)NS(=O)(=O)c2sc(Cl)c3c2C(=O)OCC3)n1	110 to 114
Cc1ccc(S(=O)(=O)n2ccc3c(CBr)cccc32)cc1	113 to 134
COC(=O)c1coc(-c2ccc(NS(=O)(=O)c3sc4ccc(Cl)cc4c3C)c(S(C)(=O)=O)c2)n1	237 to 239
O=C(O)COc1ccc(CCNS(=O)(=O)c2ccccc2)cc1[N+](=O)[O-]	135 to 136
O=Cc1ccc(CBr)c(Cl)c1	64 to 66
CC(C)(Oc1ccc(OCc2cccc3c2cnn3-c2ccc(C(F)(F)F)cc2)cc1)C(=O)O	128 to 130
CN(c1cccs1)c1n[nH]c2ncnc(Nc3cccc(Cl)c3)c12	228 to 229
COC(=O)C1=C(C)NC(C)=C(C(=O)OCCCCCCN2C(=O)c3ccccc3C2=O)C1c1cccc([N+](=O)[O-])c1 (stereo not given)	134 to 140
CN(C)C1=C(Cl)C(=O)NC1=Nc1ccccc1	135 to 138
CN(CC1OCCO1)c1nccc(Oc2ccc(NC(=O)c3cc(F)cc(N4CCCCC4)c3)c3ccccc23)n1	125 to 127
COc1ccc(-c2nc(CCCCCC(C#N)C(=O)O)oc2-c2ccc(OC)cc2)cc1 (stereo not given)	150
O=C(Nc1ccccc1)Oc1ccc(N=C=S)cc1	139 to 142
CCOC(=O)c1cc(OCCC2CCN(c3ccc(Cl)nn3)CC2)cs1	112
CCCCS(=O)Cc1ccc(CS(=O)CCCC)cc1 (stereo not given)	187 to 188
